Data on 2 molecules can be found in US11077114B2, “Stabilized formulations of CNS compounds” (Supernus Pharmaceuticals, Inc., priority 2010, dated 2021).

Where a name gives a salt, the structure may show the parent alone.

The conditions of data set [1]: cited from earlier work.
Data set [2] is described as follows: Molindone hydrochloride solubility profile at ambient conditions. In kind it is physicochemical. As to conditions: acidic to slightly acidic media versus neutral to slightly alkaline pH; FIG. 1. The text has this:
As a weakly basic drug, molindone is typically included into formulations in the form of a salt, such as chloride, sulfate, phosphate, monohydrogenphosphate, dihydrogenphosphate, bromide, iodide, acetate, propionate, decanoate, caprylate, formate, oxalate, malonate, succinate, fumarate, maleate, citrate, lactate, tartrate, methanesulfonate, mandelate, and the like.

The nature of data set [3]: pH dependent solution state stability in phosphate buffer at 37° C. It is filed as physicochemical. As to conditions: 24 hour exposure.

Turning to `CCc1c(C)[nH]c2c1C(=O)C(CN1CCOCC1)CC2` (stereo not drawn) [Molindone hydrochloride], the tmax in data set [1] (following oral administration) is 1 to 1.5 h. Further, the plasma elimination half-life entry in data set [1] (oral dose) is given as “about 2 hours”.

Take `CCc1c(C)[nH]c2c1C(=O)C(CN1CCOCC1)CC2` (stereo not drawn) [Molindone, 3-Ethyl-6,7-dihydro-2-methyl-5-(morpholinomethyl)indol-4(5H)-one]: the “solubility versus pH (in words)” value in data set [2] was “greater solubility”. Further, the results for the loss in data set [3] (pH 6.0 phosphate buffer), in data set [3] (pH 6.8 phosphate buffer) and in data set [3] (pH 7.5 phosphate buffer) were 3%, 6.4% and 7.5%, respectively.
